Experiment [1] deals with EGFR L858R/T790M/C797S mutant enzyme (Homo sapiens (Human), UniProt P00533, C797S/L858R/T790M). The experiment in a line: EGFR mutant enzyme inhibition, HTRF system (Cisbio). The format is biochemical. To be noted: ATP 1 mM, 37° C. for 2 hours. The protocol:
In order to evaluate the inhibitory activity of the compound represented by formula 1 according to the present invention against EGFR mutation, the following experiment was performed.
The activity of the compound of the present invention against EGFR mutant enzyme was measured using the HTRF system of Cisbio Co. As an EGFR L858R/T790M/C797S mutant enzyme, a protein provided by SignalChem was purchased and used as an enzyme source.
The composition of the assay buffer used for the activity measurement was as follows: 50 mM Tris-HCl (pH 7.5), 100 mM NaCl, 7.5 mM MgCl2, 3 mM KCl, 0.01% Tween 20, 0.1% BSA, and 1 mM DTT. Herein, an enzyme reaction was performed using a peptide substrate labeled with ATP at the concentration of 1 mM and biotin at the concentration of 0.5 μM. The analysis of the EGFR activity inhibitory effect of the compound was performed according to the following analytical reaction recipe.
Component 1: 4 μl of EGFR mutant enzyme
Component 2: 2 μl of compound solution
Component 3: 4 μl of ATP and biotin-labeled peptide mixture
The enzyme reaction was initiated by mixing the component 1 and the component 2 first and then adding the component 3 thereto. After reacting the mixture at 37° C. for 2 hours, 10 μl of a measurement solution consisting of streptavidin-XL665 and europium-labeled anti-phosphotyrosine antibody provided by Cisbio was added to the enzyme reaction solution, followed by reaction at room temperature for 1 hour. Finally, the ratio of the fluorescence values at 615 nm and 665 nm was calculated using Envision equipment of Perkin-Elmer to quantitatively measure the enzyme activity and confirm the inhibitory ability of the compound. The values measured at 7 concentrations of the compound were analyzed using Prism program (version 5.01, Graphpad Software, Inc.), and the IC50 value, an index of the inhibitory ability of the compound, was calculated.
On the technique in general: TR-FRET usually uses a lanthanide donor and a delayed reading to cut background.

For the next experiment, the system named is Ba/F3 EGFR L858R/T790M. The experiment in a line: Ba/F3 cell viability, CellTiter-Glo. The format is cell-based. The conditions noted are these: for cell viability: administered alone, FIGS. 1 to 4; for cell viability compared to EAI045: co-administered with Cetuximab, 30 nM or 100 nM, FIGS. 6 and 7. The protocol:
In order to confirm that the compound represented by formula 1 according to the present invention acted as an allosteric inhibitor against EGFR wild-type and mutants, the inhibitory effect on EGFR wild-type and mutants in Ba/F3 cell lines was evaluated. In addition, in order to evaluate the cellular activity when the compound according to the present invention was co-administered with an existing drug, the cellular activity according to the combined administration was evaluated using Cetuximab used alone or in combination with chemotherapy in metastatic colorectal cancer and metastatic squamous head and neck cancer.
Particularly, the activity of the compound of the present invention against the wild-type and mutant Ba/F3 EGFR cell lines was measured as follows using the CellTiter-Glo system of Promega. CellTiter-Glo assay is a method to confirm the cell viability by measuring ATP present in cells in cell culture state. Ba/F3 EGFR wild-type and Ba/F3 EGFR L858R, Ba/F3 EGFR L858R/T790M and Ba/F3 L858R/T790M/C797S mutant cell lines were purchased from Crown Bioscience and used. Ba/F3 EGFR wild-type and Ba/F3 EGFR L858R, Ba/F3 EGFR L858R/T790M and Ba/F3 L858R/T790M/C797S mutant cell lines were cultured in RPMI containing 10% FBS, 1% penicillin-streptomycin and 1 ug/ml of puromycine in a 37° C., 5% CO2 incubator.
Analysis of the cell survival inhibitory effect of the compound according to each EGFR mutant was performed according to the following analytical reaction recipe.
BaF3 cells were aliquoted into 2500 cells/50 ul per well of a 96 well cell culture plate and cultured for 24 hours, to which 50 ul of the compound represented by formula 1 was treated at the concentrations of 0, 0.03, 0.1, 0.3, and 1 μM. The plate treated with the compound was reacted in a 37° C. incubator for 72 hours, and then left at room temperature for 30 minutes according to the CellTiter-Glo assay instruction to maintain the plate temperature at room temperature. Thereafter, 100 μl of CellTiter-Glo reagent was treated to each well of the plate, followed by shaking incubation at room temperature for 10 minutes. Finally, the […] was quantitatively measured using a luminometer, and the ability of the compound to inhibit cell viability was confirmed. The values measured at concentrations of the compound were analyzed using Prism program (version 5.01, Graphpad Software, Inc.), and the IC50 value, an index of the inhibitory ability of the compound, was calculated.
For orientation: In ATP-based viability assays light output follows the ATP content of the culture.

EGFR L858R/T790M/C797S mutant enzyme, sequence (P00533 25-1210 T790M/C797S/L858R): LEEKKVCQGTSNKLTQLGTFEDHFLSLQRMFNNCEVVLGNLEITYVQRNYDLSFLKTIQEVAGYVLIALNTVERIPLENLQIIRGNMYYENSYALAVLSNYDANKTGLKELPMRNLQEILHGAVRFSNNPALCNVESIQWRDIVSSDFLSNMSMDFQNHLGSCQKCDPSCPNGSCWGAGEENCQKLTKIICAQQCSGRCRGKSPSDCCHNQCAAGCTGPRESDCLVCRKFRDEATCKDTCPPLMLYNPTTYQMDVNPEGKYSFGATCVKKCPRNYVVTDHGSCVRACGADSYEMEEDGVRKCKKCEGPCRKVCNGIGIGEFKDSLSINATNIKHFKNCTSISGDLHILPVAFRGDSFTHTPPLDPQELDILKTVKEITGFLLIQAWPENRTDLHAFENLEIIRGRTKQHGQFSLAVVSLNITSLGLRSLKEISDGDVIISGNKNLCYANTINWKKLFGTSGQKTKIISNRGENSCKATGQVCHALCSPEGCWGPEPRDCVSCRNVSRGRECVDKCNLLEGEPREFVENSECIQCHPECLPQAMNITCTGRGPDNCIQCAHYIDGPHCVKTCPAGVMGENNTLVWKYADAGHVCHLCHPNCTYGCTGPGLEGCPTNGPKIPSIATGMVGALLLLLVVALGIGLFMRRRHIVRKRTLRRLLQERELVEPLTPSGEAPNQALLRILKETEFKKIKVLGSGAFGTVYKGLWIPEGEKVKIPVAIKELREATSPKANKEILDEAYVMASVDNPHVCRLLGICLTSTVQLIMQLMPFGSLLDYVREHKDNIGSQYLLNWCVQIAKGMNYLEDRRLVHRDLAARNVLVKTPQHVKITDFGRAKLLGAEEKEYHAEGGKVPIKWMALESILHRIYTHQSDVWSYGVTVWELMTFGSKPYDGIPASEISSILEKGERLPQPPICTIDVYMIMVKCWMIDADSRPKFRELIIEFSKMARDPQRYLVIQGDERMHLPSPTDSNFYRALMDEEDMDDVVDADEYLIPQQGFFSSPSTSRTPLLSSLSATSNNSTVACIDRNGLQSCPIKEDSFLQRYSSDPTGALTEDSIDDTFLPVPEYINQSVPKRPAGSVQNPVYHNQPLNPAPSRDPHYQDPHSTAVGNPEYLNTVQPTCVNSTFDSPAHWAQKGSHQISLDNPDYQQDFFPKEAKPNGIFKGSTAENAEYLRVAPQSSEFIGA

A word on the IC50: it is the midpoint of a concentration-inhibition curve. Read a high IC50 as weaker potency in that assay. As for `O=C1c2cc(-c3ccc(N4CCNCC4)cc3)ccc2CN1C(c1nc2ccccc2[nH]1)c1ccccc1O` (stereo not shown) [Example 9, 2-((1H-benzo[d]imidazole-2-yl)(2-hydroxyphenyl)methyl)-6-(4-(piperazine-1-yl)phenyl)isoindolin-1-one], the half-inhibitory concentration (IC50) in experiment [1] was 91 nM. Moreover, in the experiment with Ba/F3 EGFR L858R/T790M, the cell viability entry was “increased cell viability” and the “cell viability compared to EAI045” value was “significantly reduced the cell viability”.

The compound `Nc1ccc(-c2ccc3c(c2)C(=O)N(C(c2nc4ccccc4[nH]2)c2cc(F)ccc2O)C3)cc1` (stereo not shown) [Example 13, 2-((1H-benzo[d]imidazole-2-yl)(5-fluoro-2-hydroxyphenyl)methyl)-6-(4-aminophenyl)isoindolin-1-one] yielded an IC50 in experiment [1] of 98 nM. In the experiment with Ba/F3 EGFR L858R/T790M, the cell viability result is listed as “increased cell viability”.

In the case of `O=C1c2cc(-c3ccc(N4CCNCC4)cc3)ccc2CN1[C@@H](c1cc2ccccc2[nH]1)c1cc(F)ccc1O` [Example 32, (R)-2-((5-fluoro-2-hydroxyphenyl)(1H-indole-2-yl)methyl)-6-(4-(piperazine-1-yl)phenyl)isoindolin-1-one], in experiment [1], half-maximal inhibition (IC50) was put at 8 nM. Besides, in the experiment on Ba/F3 EGFR L858R/T790M, the cell viability result was “increased cell viability” and the “cell viability compared to EAI045” value is given as “significantly reduced the cell viability”.

In turn, `O=C1c2cc(-c3ccc(N4CCNCC4)cc3)ccc2CN1[C@@H](c1cc2ccccc2[nH]1)c1cc(Cl)ccc1O` [Example 33, (R)-2-((5-chloro-2-hydroxyphenyl)(1H-indole-2-yl)methyl)-6-(4-(piperazine-1-yl)phenyl)isoindolin-1-one] yielded an IC50 in experiment [1] of 12 nM. Also, in the experiment with Ba/F3 EGFR L858R/T790M, the cell viability result is on record as “increased cell viability” and the “cell viability compared to EAI045” value was “significantly reduced the cell viability”.

In experiment [1], `CN(C)C1CCN(c2ccc(-c3ccc4c(c3)C(=O)N([C@@H](c3cc5ccccc5[nH]3)c3cc(F)ccc3O)C4)cc2)CC1` [Example 61, (R)-6-(4-(4-(dimethylamino)piperidine-1-yl)phenyl)-2-((5-fluoro-2-hydroxyphenyl)(1H-indole-2-yl)methyl)-isoindolin-1-one] displayed an IC50 of 66 nM.

In turn, `CN(C)C1CCN(c2ccc(-c3ccc4c(c3)C(=O)N([C@@H](c3cc5ccccc5[nH]3)c3cc(Cl)ccc3O)C4)cc2)CC1` [Example 62, (R)-2-((5-chloro-2-hydroxyphenyl)(1H-indole-2-yl)methyl)-6-(4-(4-(dimethylamino)piperidine-1-yl)phenyl)-isoindolin-1-one] registered an IC50 in experiment [1] of 2200 nM.

For `O=C1c2cc(-c3ccc(N4CCN(C5CCNCC5)CC4)cc3)ccc2CN1[C@@H](c1cc2ccccc2[nH]1)c1cc(F)ccc1O` [Example 63, (R)-2-((5-fluoro-2-hydroxyphenyl)(1H-indole-2-yl)methyl)-6-(4-(4-(piperidine-4-yl)piperazine-1-yl)phenyl)isoindolin-1-one], the IC50 in experiment [1] amounted to 300 nM.

Turning to `O=C1c2cc(-c3ccc(N4CCN(C5CCNCC5)CC4)cc3)ccc2CN1[C@@H](c1cc2ccccc2[nH]1)c1cc(Cl)ccc1O` [Example 64, (R)-2-((5-chloro-2-hydroxyphenyl)(1H-indole-2-yl)methyl)-6-(4-(4-(piperidine-4-yl)piperazine-1-yl)phenyl)isoindolin-1-one], in experiment [1], it took 260 nM to reach half-maximal inhibition (IC50).

In experiment [1], `CN1CCC(N2CCN(c3ccc(-c4ccc5c(c4)C(=O)N([C@@H](c4cc6ccccc6[nH]4)c4cc(F)ccc4O)C5)cc3)CC2)CC1` [Example 65, (R)-2-((5-fluoro-2-hydroxyphenyl)(1H-indole-2-yl)methyl)-6-(4-(4-(1-methylpiperidine-4-yl)piperazine-1-yl)phenyl)isoindolin-1-one] registered an IC50 of 50 nM.

`CN1CCC(N2CCN(c3ccc(-c4ccc5c(c4)C(=O)N([C@@H](c4cc6ccccc6[nH]4)c4cc(Cl)ccc4O)C5)cc3)CC2)CC1` [Example 66, (R)-2-((5-chloro-2-hydroxyphenyl)(1H-indole-2-yl)methyl)-6-(4-(4-(1-methylpiperidine-4-yl)piperazine-1-yl)phenyl)isoindolin-1-one] displayed an IC50 in experiment [1] of 410 nM.

On to `O=C1c2cc(-c3ccc(N4CCCC4)cc3)ccc2CN1[C@@H](c1cc2ccccc2[nH]1)c1cc(F)ccc1O` [Example 67, (R)-2-((5-fluoro-2-hydroxyphenyl)(1H-indole-2-yl)methyl)-6-(4-(pyrrolidine-1-yl)phenyl)isoindolin-1-one], for which, in experiment [1], the IC50 was 790 nM.

Take `O=C1c2cc(-c3ccc(N4CCCC4)cc3)ccc2CN1[C@@H](c1cc2ccccc2[nH]1)c1cc(Cl)ccc1O` [Example 68, (R)-2-((5-chloro-2-hydroxyphenyl)(1H-indole-2-yl)methyl)-6-(4-(pyrrolidine-1-yl)phenyl)isoindolin-1-one]: the midpoint of inhibition in experiment [1], the IC50, lay at 250 nM.

Regarding `N[C@@H]1CCN(c2ccc(-c3ccc4c(c3)C(=O)N([C@@H](c3cc5ccccc5[nH]3)c3cc(F)ccc3O)C4)cc2)C1` [Example 69, 6-(4-((R)-3-aminopyrrolidine-1-yl)phenyl)-2-((R)-(5-fluoro-2-hydroxyphenyl)(1H-indole-2-yl)methyl)isoindolin-1-one], the IC50 in experiment [1] is 56 nM.

Consider `N[C@@H]1CCN(c2ccc(-c3ccc4c(c3)C(=O)N([C@@H](c3cc5ccccc5[nH]3)c3cc(Cl)ccc3O)C4)cc2)C1` [Example 70, 6-(4-((R)-3-aminopyrrolidine-1-yl)phenyl)-2-((R)-(5-chloro-2-hydroxyphenyl)(1H-indole-2-yl)methyl)isoindolin-1-one], for which the IC50 in experiment [1] was 730 nM.

As for `N[C@H]1CCN(c2ccc(-c3ccc4c(c3)C(=O)N([C@@H](c3cc5ccccc5[nH]3)c3cc(F)ccc3O)C4)cc2)C1` [Example 71, 6-(4-((S)-3-aminopyrrolidine-1-yl)phenyl)-2-((R)-(5-fluoro-2-hydroxyphenyl)(1H-indole-2-yl)methyl)isoindolin-1-one], the midpoint of inhibition in experiment [1], the IC50, lay at 45 nM.

Source of the values: patent US11976059B2 (KOREA RESEARCH INSTITUTE OF CHEMICAL TECHNOLOGY, priority 2018, dated 2024).
